Source: ChEMBL document CHEMBL1133164, “N-[[(5-methyl-3-phenylisoxazol-4-yl)-phenyl]sulfonyl]propanamide, sodium salt, parecoxib sodium: A potent and selective inhibitor of COX-2 for parenteral administration” (J Med Chem, 2000)

Experiments:
Rattus norvegicus [1] = species: Rattus norvegicus; assay: Compound was tested for the antiinflammatory activity in carrageenan air pouch model of inflammation; format: functional
[2] = molecular target: T1, Prostaglandin G/H synthase 2 (Homo sapiens, UniProt P35354)
T1 sequence (P35354 whole entry): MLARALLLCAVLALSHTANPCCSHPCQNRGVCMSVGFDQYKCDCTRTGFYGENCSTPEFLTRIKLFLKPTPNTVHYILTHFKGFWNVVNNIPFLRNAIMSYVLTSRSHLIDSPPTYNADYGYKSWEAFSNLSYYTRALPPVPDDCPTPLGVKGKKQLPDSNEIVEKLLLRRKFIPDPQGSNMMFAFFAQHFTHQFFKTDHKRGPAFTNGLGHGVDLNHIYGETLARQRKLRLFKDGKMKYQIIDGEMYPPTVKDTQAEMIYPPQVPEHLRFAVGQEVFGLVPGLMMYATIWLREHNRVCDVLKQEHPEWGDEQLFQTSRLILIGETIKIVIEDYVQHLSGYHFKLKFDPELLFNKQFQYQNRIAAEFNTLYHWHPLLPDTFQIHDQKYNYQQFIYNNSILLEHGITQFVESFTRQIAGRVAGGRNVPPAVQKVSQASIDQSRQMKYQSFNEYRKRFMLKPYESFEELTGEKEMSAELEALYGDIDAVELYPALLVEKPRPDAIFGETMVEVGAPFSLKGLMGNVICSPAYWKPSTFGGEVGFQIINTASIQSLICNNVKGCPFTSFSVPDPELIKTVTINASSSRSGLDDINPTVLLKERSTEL
Description: Compound was tested for its inhibitory activity against recombinant human Prostaglandin G/H synthase 2

[3] = molecular target: Prostaglandin G/H synthase 1 (Homo sapiens, UniProt P23219); assay: Compound was tested for its inhibitory activity against recombinant human Prostaglandin G/H synthase 1
Chain of Prostaglandin G/H synthase 1 (P23219 whole entry): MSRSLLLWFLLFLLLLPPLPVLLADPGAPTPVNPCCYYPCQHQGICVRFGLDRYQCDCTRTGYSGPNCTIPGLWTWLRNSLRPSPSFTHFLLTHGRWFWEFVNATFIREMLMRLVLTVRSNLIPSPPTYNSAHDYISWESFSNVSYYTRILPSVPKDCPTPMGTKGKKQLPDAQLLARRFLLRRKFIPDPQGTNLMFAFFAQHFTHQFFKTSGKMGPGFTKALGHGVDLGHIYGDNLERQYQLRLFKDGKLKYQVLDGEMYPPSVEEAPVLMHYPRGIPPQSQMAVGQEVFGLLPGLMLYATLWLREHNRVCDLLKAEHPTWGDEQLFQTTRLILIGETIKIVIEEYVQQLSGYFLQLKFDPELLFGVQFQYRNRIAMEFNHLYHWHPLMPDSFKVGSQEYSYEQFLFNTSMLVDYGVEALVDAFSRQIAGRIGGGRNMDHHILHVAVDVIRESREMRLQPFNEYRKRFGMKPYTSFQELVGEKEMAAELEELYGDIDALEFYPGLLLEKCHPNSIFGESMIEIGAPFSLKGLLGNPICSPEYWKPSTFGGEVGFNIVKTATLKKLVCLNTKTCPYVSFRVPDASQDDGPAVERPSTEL

Rattus norvegicus [4] = species: Rattus norvegicus; assay: Compound was tested for the chronic antiinflammatory activity in rat adjuvant arthritis model; format: functional
[5] = In vivo mean elimination half life in the female dogs by intravenous administration of the compound; format: ADME, organism-based, Canis lupus familiaris; details: dog
[6] = In vivo mean elimination half life in the cynomolgus monkeys by intravenous administration of the compound; format: ADME, organism-based, Macaca fascicularis; details: cynomolgus monkey
Rattus norvegicus [7] = assay: Compound was tested for complete blockade of carrageenan induced hyperalgesia within 1 hr after iv administration; format: functional
Rattus norvegicus [8] = assay: Compound was tested for the percentage inhibition at 0.3 mg/kg in carrageenan air pouch assay.; format: functional
[9] = In vivo mean elimination half life in the male rat by intravenous administration of the compound; format: ADME, organism-based
Rattus norvegicus [10] = species: Rattus norvegicus; assay: Compound was tested for the antiinflammatory activity in rat adjuvant arthritis model; format: functional

CC(=O)[N-]S(=O)(=O)c1ccc(-c2c(-c3ccccc3)noc2C)cc1.[Na+]
ED50 (Rattus norvegicus [1]): 0.5 mg/kg | IC50 [2]: 20 µM | IC50 [3]: 100 µM

CCC(=O)[N-]S(=O)(=O)c1ccc(-c2c(-c3ccccc3)noc2C)cc1.[Na+] [PARECOXIB SODIUM]
ED50 (Rattus norvegicus [4]): 0.08 mg/kg | half-life [5]: 33.2 min | half-life [6]: 72.6 min | ED50 (Rattus norvegicus [7]): 5 mg/kg | inhibition in vivo at 0.3 mg/kg (Rattus norvegicus [8]): 98% | half-life [9]: 8.1 min

Cc1onc(-c2ccccc2)c1-c1ccc(S(N)(=O)=O)cc1 [VALDECOXIB]
ED50 (Rattus norvegicus [10]): 0.08 mg/kg
